Laboratory results from the supplement of paper PMC10307832.

Assays:
Assay in all cases: relative viability (nuclei count vs DMSO), 5 days (fraction); higher = more cells survive
SK-LU-1 = system: SK-LU-1
Procedure, shortened: (§1)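 For relative viability, nuclei counts in treated wells were divided by those in vehicle wells. Lung cancer cell lines had been pin-tool dosed in 1536-well plates the day after seeding and cultured for 5 days, then fixed and stained in one step (final 0.05% Triton X-100, 1% formaldehyde, 1 ug/ml Hoechst) and imaged at 4×. Doses were one drug alone or a fixed anchor-drug dose plus five library-drug doses (not always all listed) in √10 steps, and values are duplicate-plate medians.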

NCI-H2228 = system: NCI-H2228
Procedure, shortened: as §1

LOU-NH91 = system: LOU-NH91
Procedure, shortened: as §1

NCI-H661 = system: NCI-H661
Procedure, shortened: as §1

NCI-H2170 = system: NCI-H2170
Procedure, shortened: as §1

LC-2-ad = system: LC-2-ad
Procedure, shortened: as §1

NCI-H596 = system: NCI-H596
Procedure, shortened: as §1

SK-MES-1 = system: SK-MES-1
Procedure, shortened: as §1

NCI-H1395 = system: NCI-H1395
Procedure, shortened: as §1

BEN = system: BEN
Procedure, shortened: as §1

NCI-H2087 = system: NCI-H2087
Procedure, shortened: as §1

NCI-H1734 = system: NCI-H1734
Procedure, shortened: as §1

NCI-H2405 = system: NCI-H2405
Procedure, shortened: as §1

NCI-H2342 = system: NCI-H2342
Procedure, shortened: as §1

NCI-H647 = system: NCI-H647
Procedure, shortened: as §1

HARA = system: HARA
Procedure, shortened: as §1

EKVX = system: EKVX
Procedure, shortened: as §1

HCC-827 = system: HCC-827
Procedure, shortened: as §1

NCI-H1355 = system: NCI-H1355
Procedure, shortened: as §1

HCC-366 = system: HCC-366
Procedure, shortened: as §1

NCI-H2009 = system: NCI-H2009
Procedure, shortened: as §1

NCI-H1437 = system: NCI-H1437
Procedure, shortened: as §1

With `NC(=O)Nc1cc(-c2cccc(F)c2)sc1C(=O)N[C@H]1CCCNC1` [AZD7762] + COc1cc2c(Oc3ccc(NC(=O)C4(C(=O)Nc5ccc(F)cc5)CC4)cc3F)ccnc2cc1OCCCN1CCOCC1 [Foretinib] (partner 0.25 µM) as the compound, how does the relative viability (SK-LU-1; first compound 0.01 µM) read?
The relative viability was 1.01.

What about the relative viability (SK-LU-1; first compound 0.03162 µM) of the same compound?
The relative viability was 0.737.

What about the relative viability (SK-LU-1; first compound 0.1 µM) of the same compound?
The relative viability was 0.461.

And the relative viability (SK-LU-1; first compound 0.3162 µM)?
The relative viability was 0.185.

What about the relative viability (SK-LU-1; first compound 1 µM) of the same compound?
The relative viability was 0.145.

What about the relative viability (NCI-H2228; first compound 0.01 µM) of the same compound?
Its relative viability is 0.851.

What about the relative viability (NCI-H2228; first compound 0.03162 µM) of the same compound?
Its relative viability is 0.788.

And the relative viability (NCI-H2228; first compound 0.1 µM)?
The relative viability was 0.825.

What about the relative viability (NCI-H2228; first compound 0.3162 µM) of the same compound?
The relative viability was 0.828.

What about the relative viability (NCI-H2228; first compound 1 µM) of the same compound?
Its relative viability is 0.265.

And the relative viability (LOU-NH91; first compound 0.01 µM)?
The relative viability was 0.925.

What about the relative viability (LOU-NH91; first compound 0.03162 µM) of the same compound?
The relative viability was 0.947.

What about the relative viability (LOU-NH91; first compound 0.1 µM) of the same compound?
Its relative viability is 0.96.

And the relative viability (LOU-NH91; first compound 0.3162 µM)?
The relative viability was 0.93.

And the relative viability (LOU-NH91; first compound 1 µM)?
The relative viability was 0.737.

What about the relative viability (NCI-H661; first compound 0.01 µM) of the same compound?
The relative viability was 1.08.

What about the relative viability (NCI-H661; first compound 0.03162 µM) of the same compound?
Its relative viability is 1.1.

And the relative viability (NCI-H661; first compound 0.1 µM)?
The relative viability was 1.12.

And the relative viability (NCI-H661; first compound 0.3162 µM)?
The relative viability was 1.03.

And the relative viability (NCI-H661; first compound 1 µM)?
The relative viability was 0.598.

And the relative viability (NCI-H2170; first compound 0.01 µM)?
The relative viability was 0.925.

What about the relative viability (NCI-H2170; first compound 0.03162 µM) of the same compound?
Its relative viability is 1.06.

What about the relative viability (NCI-H2170; first compound 0.1 µM) of the same compound?
Its relative viability is 0.984.

And the relative viability (NCI-H2170; first compound 0.3162 µM)?
The relative viability was 1.04.

And the relative viability (NCI-H2170; first compound 1 µM)?
Its relative viability is 1.13.

What about the relative viability (LC-2-ad; first compound 0.01 µM) of the same compound?
Its relative viability is 1.15.

What about the relative viability (LC-2-ad; first compound 0.03162 µM) of the same compound?
The relative viability was 1.09.

And the relative viability (LC-2-ad; first compound 0.1 µM)?
Its relative viability is 1.07.

What about the relative viability (LC-2-ad; first compound 0.3162 µM) of the same compound?
The relative viability was 1.18.

What about the relative viability (LC-2-ad; first compound 1 µM) of the same compound?
Its relative viability is 0.756.

What about the relative viability (NCI-H596; first compound 0.01 µM) of the same compound?
Its relative viability is 0.993.

What about the relative viability (NCI-H596; first compound 0.03162 µM) of the same compound?
Its relative viability is 1.04.

What about the relative viability (NCI-H596; first compound 0.1 µM) of the same compound?
Its relative viability is 1.01.

What about the relative viability (NCI-H596; first compound 0.3162 µM) of the same compound?
The relative viability was 0.923.

What about the relative viability (NCI-H596; first compound 1 µM) of the same compound?
Its relative viability is 0.744.

What about the relative viability (SK-MES-1; first compound 0.01 µM) of the same compound?
Its relative viability is 0.83.

And the relative viability (SK-MES-1; first compound 0.03162 µM)?
Its relative viability is 0.973.

What about the relative viability (SK-MES-1; first compound 0.1 µM) of the same compound?
Its relative viability is 1.02.

And the relative viability (SK-MES-1; first compound 0.3162 µM)?
Its relative viability is 0.903.

And the relative viability (SK-MES-1; first compound 1 µM)?
Its relative viability is 0.528.

And the relative viability (NCI-H1395; first compound 0.01 µM)?
Its relative viability is 0.974.

And the relative viability (NCI-H1395; first compound 0.03162 µM)?
The relative viability was 1.08.

And the relative viability (NCI-H1395; first compound 0.1 µM)?
The relative viability was 1.1.

And the relative viability (NCI-H1395; first compound 0.3162 µM)?
The relative viability was 0.91.

What about the relative viability (NCI-H1395; first compound 1 µM) of the same compound?
The relative viability was 0.452.

What about the relative viability (BEN; first compound 0.01 µM) of the same compound?
Its relative viability is 0.714.

What about the relative viability (BEN; first compound 0.03162 µM) of the same compound?
The relative viability was 0.747.

What about the relative viability (BEN; first compound 0.1 µM) of the same compound?
The relative viability was 0.621.

What about the relative viability (BEN; first compound 0.3162 µM) of the same compound?
Its relative viability is 0.507.

What about the relative viability (BEN; first compound 1 µM) of the same compound?
The relative viability was 0.596.

What about the relative viability (NCI-H2087; first compound 0.01 µM) of the same compound?
Its relative viability is 1.28.

And the relative viability (NCI-H2087; first compound 0.03162 µM)?
The relative viability was 1.12.

What about the relative viability (NCI-H2087; first compound 0.1 µM) of the same compound?
Its relative viability is 1.34.

And the relative viability (NCI-H2087; first compound 0.3162 µM)?
The relative viability was 1.32.

And the relative viability (NCI-H2087; first compound 1 µM)?
The relative viability was 1.29.

And the relative viability (NCI-H1734; first compound 0.01 µM)?
Its relative viability is 0.979.

And the relative viability (NCI-H1734; first compound 0.03162 µM)?
Its relative viability is 0.97.

What about the relative viability (NCI-H1734; first compound 0.1 µM) of the same compound?
Its relative viability is 0.929.

What about the relative viability (NCI-H1734; first compound 0.3162 µM) of the same compound?
The relative viability was 0.807.

What about the relative viability (NCI-H1734; first compound 1 µM) of the same compound?
The relative viability was 0.436.

And the relative viability (NCI-H2405; first compound 0.01 µM)?
Its relative viability is 1.13.

What about the relative viability (NCI-H2405; first compound 0.03162 µM) of the same compound?
The relative viability was 1.07.

What about the relative viability (NCI-H2405; first compound 0.1 µM) of the same compound?
Its relative viability is 1.05.

And the relative viability (NCI-H2405; first compound 0.3162 µM)?
Its relative viability is 1.03.

And the relative viability (NCI-H2405; first compound 1 µM)?
Its relative viability is 0.67.

What about the relative viability (NCI-H2342; first compound 0.01 µM) of the same compound?
Its relative viability is 0.992.

And the relative viability (NCI-H2342; first compound 0.03162 µM)?
The relative viability was 1.14.

What about the relative viability (NCI-H2342; first compound 0.1 µM) of the same compound?
The relative viability was 1.09.

What about the relative viability (NCI-H2342; first compound 0.3162 µM) of the same compound?
Its relative viability is 1.1.

And the relative viability (NCI-H2342; first compound 1 µM)?
Its relative viability is 1.25.

And the relative viability (NCI-H647; first compound 0.01 µM)?
Its relative viability is 1.23.

And the relative viability (NCI-H647; first compound 0.03162 µM)?
The relative viability was 1.32.

What about the relative viability (NCI-H647; first compound 0.1 µM) of the same compound?
Its relative viability is 1.23.

And the relative viability (NCI-H647; first compound 0.3162 µM)?
The relative viability was 1.19.

And the relative viability (NCI-H647; first compound 1 µM)?
Its relative viability is 0.326.

What about the relative viability (HARA; first compound 0.01 µM) of the same compound?
The relative viability was 0.888.

And the relative viability (HARA; first compound 0.03162 µM)?
The relative viability was 0.932.

What about the relative viability (HARA; first compound 0.1 µM) of the same compound?
The relative viability was 0.91.

And the relative viability (HARA; first compound 0.3162 µM)?
Its relative viability is 0.866.

What about the relative viability (HARA; first compound 1 µM) of the same compound?
The relative viability was 0.197.

What about the relative viability (EKVX; first compound 0.01 µM) of the same compound?
Its relative viability is 0.64.

What about the relative viability (EKVX; first compound 0.03162 µM) of the same compound?
Its relative viability is 0.741.

What about the relative viability (EKVX; first compound 0.1 µM) of the same compound?
The relative viability was 0.956.

And the relative viability (EKVX; first compound 0.3162 µM)?
The relative viability was 0.387.

What about the relative viability (EKVX; first compound 1 µM) of the same compound?
Its relative viability is 0.522.

And the relative viability (HCC-827; first compound 0.01 µM)?
Its relative viability is 0.975.

And the relative viability (HCC-827; first compound 0.03162 µM)?
The relative viability was 1.06.

What about the relative viability (HCC-827; first compound 0.1 µM) of the same compound?
Its relative viability is 1.02.

What about the relative viability (HCC-827; first compound 0.3162 µM) of the same compound?
The relative viability was 1.08.

What about the relative viability (HCC-827; first compound 1 µM) of the same compound?
The relative viability was 0.853.

And the relative viability (NCI-H1355; first compound 0.01 µM)?
The relative viability was 0.964.

And the relative viability (NCI-H1355; first compound 0.03162 µM)?
The relative viability was 0.975.

What about the relative viability (NCI-H1355; first compound 0.1 µM) of the same compound?
Its relative viability is 0.967.

And the relative viability (NCI-H1355; first compound 0.3162 µM)?
Its relative viability is 1.02.

And the relative viability (NCI-H1355; first compound 1 µM)?
Its relative viability is 0.995.

And the relative viability (HCC-366; first compound 0.01 µM)?
The relative viability was 0.954.

And the relative viability (HCC-366; first compound 0.03162 µM)?
The relative viability was 0.927.

And the relative viability (HCC-366; first compound 0.1 µM)?
The relative viability was 0.978.

What about the relative viability (HCC-366; first compound 0.3162 µM) of the same compound?
The relative viability was 0.973.

What about the relative viability (HCC-366; first compound 1 µM) of the same compound?
The relative viability was 0.312.

What about the relative viability (NCI-H2009; first compound 0.01 µM) of the same compound?
The relative viability was 1.25.

And the relative viability (NCI-H2009; first compound 0.03162 µM)?
Its relative viability is 1.27.

What about the relative viability (NCI-H2009; first compound 0.1 µM) of the same compound?
The relative viability was 1.27.

What about the relative viability (NCI-H2009; first compound 0.3162 µM) of the same compound?
The relative viability was 1.13.

And the relative viability (NCI-H2009; first compound 1 µM)?
The relative viability was 0.962.

And the relative viability (NCI-H1437; first compound 0.01 µM)?
The relative viability was 1.27.

What about the relative viability (NCI-H1437; first compound 0.03162 µM) of the same compound?
Its relative viability is 1.31.

And the relative viability (NCI-H1437; first compound 0.1 µM)?
The relative viability was 1.24.

What about the relative viability (NCI-H1437; first compound 0.3162 µM) of the same compound?
The relative viability was 1.02.

What about the relative viability (NCI-H1437; first compound 1 µM) of the same compound?
Its relative viability is 1.13.
